Read-outs that look alike come from different tables or passages of the source.
Tested on: HCT116 MTAP-deleted cell lines
Experiment: Cell viability assay (CellTiter-Glo, 7 days), HCT116 MTAP-deleted
Type: cell-based
Settings: Homo sapiens, HCT-116
Outline: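 First, compounds are serially diluted in DMSO and dispensed into plates, which are frozen until seeding. Next, cells are added and incubated 7 days at 37 °C, 5% CO2, 90% humidity. Finally, CellTiter-Glo reagent is added and luminescence is measured to derive CC50.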

[1] = cell viability assay, HCT116 MTAP-deleted, class symbols, read-out: CC50
[2] = cell viability, HCT116 MTAP-deleted, class symbols, read-out: CC50

CN(C(=O)c1cc2c(cc1F)nc(N)c1cncn12)[C@@H]1COc2cc(C#CC3(C)CC3)ccc21 [Ff-514, (S)-4-amino-7-fluoro-N-methyl-N-(6-((1-methylcyclopropyl)ethynyl)-2,3-dihydrobenzofuran-3-yl)imidazo[1,5-a]quinoxaline-8-carboxamide]
CC50 [1]: 100 to 1000 nM

C[C@@H]1CN(C(=O)c2cc3c(cn2)nc(N)c2cncn23)[C@H]2c3cc(F)c(OC(F)(F)F)cc3C[C@H]2O1 (single isomer, unassigned) [Ff-195]
CC50 [2]: < 100 nM

COC[C@@H](C)N(Cc1ccc(C(F)(F)F)cc1F)C(=O)c1cc2c(cc1F)nc(N)c1cncn12 [Ff-419, 4-amino-7-fluoro-N-[[2-fluoro-4-(trifluoromethyl)phenyl]methyl]-N-[(1R)-2-methoxy-1-methyl-ethyl]imidazo[1,5-a]quinoxaline-8-carboxamide]
CC50 [1]: < 100 nM

CN(C(=O)c1cc2c(cn1)nc(N)c1cncn12)[C@@H]1COc2cc(OC(F)(F)F)ccc21 [Ff-565, (S)-4-amino-N-methyl-N-(6-(trifluoromethoxy)-2,3-dihydrobenzofuran-3-yl)imidazo[1,5-a]pyrido[3,4-e]pyrazine-8-carboxamide]
CC50 [1]: 100 to 1000 nM

CC(C)N(Cc1ccc(-c2cnn(-c3cccnc3)c2)cc1F)C(=O)c1cc2c(cc1F)nc(N)c1cncn12 [Ff-148, 4-amino-7-fluoro-N-(2-fluoro-4-(1-(pyridin-3-yl)-1H-pyrazol-4-yl)benzyl)-N-isopropylimidazo[1,5-a]quinoxaline-8-carboxamide]
CC50 [2]: < 100 nM

CN(C(=O)c1ccc2nc(N)c3cncn3c2c1)[C@@H]1COc2c1ccc(C(F)(F)F)c2F [Ff-356, (S)-4-amino-N-(7-fluoro-6-(trifluoromethyl)-2,3-dihydrobenzofuran-3-yl)-N-methylimidazo[1,5-a]quinoxaline-8-carboxamide]
CC50 [2]: < 100 nM

Nc1nc2cc(F)c(C(=O)N3CCC[C@@H]4Oc5cc(C(F)(F)F)ccc5[C@@H]43)cc2n2c(Br)ncc12 (single isomer, unassigned) [Ff-495]
CC50 [1]: 100 to 1000 nM

CN(C(=O)c1cc2c(cn1)nc(N)c1cncn12)[C@@H]1COc2cc(C34CC(C3)C4)ccc21 [Ff-449, 7-amino-N-[(3S)-6-(1-bicyclo[1.1.1]pentanyl)-2,3-dihydrobenzofuran-3-yl]-N-methyl-2,4,8,11-tetrazatricyclo[7.4.0.02,6]trideca-1(9),3,5,7,10,12-hexaene-12-carboxamide]
CC50 [1]: < 100 nM

C[C@@H]1CN(C(=O)c2cc3c(cc2F)nc(N)c2cncn23)[C@H]2c3ccc(C(F)F)c(F)c3C[C@H]2O1 [Ff-170, (4-amino-7-fluoroimidazo[1,5-a]quinoxalin-8-yl)((2R,4aS,9aR)-7-(difluoromethyl)-8-fluoro-2-methyl-2,3,9,9a-tetrahydroindeno[2,1-b][1,4]oxazin-4(4aH)-yl)methanone]
CC50 [2]: < 100 nM

Cc1ncc2c(N)nc3cnc(C(=O)N4CCC[C@@H]5Oc6c(ccc(C(F)(F)F)c6F)[C@@H]54)cc3n12 [Ff-107, (4-amino-1-methylimidazo[1,5-a]pyrido[3,4-e]pyrazin-8-yl)((4aS,9bS)-6-fluoro-7-(trifluoromethyl)-3,4,4a,9b-tetrahydrobenzofuro[3,2-b]pyridin-1(2H)-yl)methanone]
CC50 [2]: < 100 nM

Cc1ncn2c1c(N)nc1cc(F)c(C(=O)N(C)[C@@H]3COc4cc([C@@H]5C[C@H]5C#N)c(F)cc43)cc12 [Ff-450, Trans-4-amino-N-[(3S)-6-(2-cyanocyclopropyl)-5-fluoro-2,3-dihydrobenzofuran-3-yl]-7-fluoro-N,3-dimethyl-imidazo[1,5-a]quinoxaline-8-carboxamide]
CC50 [1]: < 100 nM

CN(C(=O)c1cc2c(cc1F)nc(N)c1cncn12)C(c1ccc(C(F)(F)F)cn1)C(F)F (centres unmarked) [Ff-577, 4-amino-N-(2,2-difluoro-1-(5-(trifluoromethyl)pyridin-2-yl)ethyl)-7-fluoro-N-methylimidazo[1,5-a]quinoxaline-8-carboxamide]
CC50 [1]: 100 to 1000 nM

Nc1nc2cc(F)c(C(=O)N3CCC[C@@H]4Oc5cc(OC(F)(F)F)cc(F)c5[C@@H]43)cc2n2cncc12 (racemic) [Ff-350, Rac-(4-amino-7-fluoroimidazo[1,5-a]quinoxalin-8-yl)((4aS,9bS)-9-fluoro-7-(trifluoromethoxy)-3,4,4a,9b-tetrahydrobenzofuro[3,2-b]pyridin-1(2H)-yl)methanone]
CC50 [2]: < 100 nM

CC(=O)N(C)N(Cc1ccc(C(F)(F)F)cc1Cl)C(=O)c1ccc2nc(N)c3cncn3c2c1 [Fb-17, N′-acetyl-4-amino-N-(2-chloro-4-(trifluoromethyl)benzyl)-N′-methylimidazo[1,5-a]quinoxaline-8-carbohydrazide]
CC50 [2]: < 100 nM

CN(C(=O)c1cc2c(cc1F)nc(N)c1cncn12)[C@H]1c2ccc(C(F)(F)F)cc2[C@H]2C[C@H]21 [Ff-255, 4-amino-7-fluoro-N-methyl-N-((1aS,6R,6aR)-3-(trifluoromethyl)-1,1a,6,6a-tetrahydrocyclopropa[a]inden-6-yl)imidazo[1,5-a]quinoxaline-8-carboxamide]
CC50 [2]: 100 to 1000 nM

C[C@H]1CN(C(=O)c2cc3c(cc2F)nc(N)c2cncn23)[C@H]2c3ccc(C#N)cc3C[C@H]2O1 [Ff-578, (2S,4aS,9aR)-4-(4-amino-7-fluoroimidazo[1,5-a]quinoxaline-8-carbonyl)-2-methyl-2,3,4,4a,9,9a-hexahydroindeno[2,1-b][1,4]oxazine-7-carbonitrile]
CC50 [1]: < 100 nM

Cc1ncn2c1c(N)nc1cnc(C(=O)N3C[C@@H](C)C[C@@H]4Oc5cc(C(F)(F)F)ccc5[C@@H]43)cc12 [Fg-37, (4-amino-3-methylimidazo[1,5-a]pyrido[3,4-e]pyrazin-8-yl)((3S,4aS,9bS)-3-methyl-7-(trifluoromethyl)-3,4,4a,9b-tetrahydrobenzofuro[3,2-b]pyridin-1(2H)-yl)methanone]
CC50 [1]: < 100 nM

Nc1nc2ccc(C(=O)N(Cc3ccc(C(F)(F)F)cc3F)C34CC(C3)C4)cc2n2cncc12 [Ff-202, 4-amino-N-(bicyclo[1.1.1]pentan-1-yl)-N-(2-fluoro-4-(trifluoromethyl)benzyl)imidazo[1,5-a]quinoxaline-8-carboxamide]
CC50 [2]: 100 to 1000 nM

Nc1nc2cnc(C(=O)N3CCC[C@@H]4Oc5cc(OC(F)(F)F)c(F)cc5[C@@H]43)cc2n2cncc12 (racemic) [Ff-338, Rac-(4-aminoimidazo[1,5-a]pyrido[3,4-e]pyrazin-8-yl)((4aS,9bS)-8-fluoro-7-(trifluoromethoxy)-3,4,4a,9b-tetrahydrobenzofuro[3,2-b]pyridin-1(2H)-yl)methanone]
CC50 [2]: < 100 nM

Nc1nc2cc(Cl)c(C(=O)N3CC[C@H]4C[C@@H]3c3ccc(C(F)(F)F)cc3O4)cc2n2cncc12 [Ff-370, (4-amino-7-chloroimidazo[1,5-a]quinoxalin-8-yl)((2S,6R)-9-(trifluoromethyl)-3,4-dihydro-2H-2,6-methanobenzo[b][1,5]oxazocin-5(6H)-yl)methanone]
CC50 [1]: < 100 nM

Nc1nc2cc(F)c(C(=O)N3CC4(CC[C@@H]3c3ccc(C(F)(F)F)cc3)CC4)cc2n2cncc12 (single isomer, unassigned) [Ff-154]
CC50: < 100 nM

Nc1nc2cc(F)c(C(=O)N3C[C@@H](F)C[C@@H]4Oc5cc(OC(F)(F)F)ccc5[C@@H]43)cc2n2cncc12 [Ff-666, (4-amino-7-fluoroimidazo[1,5-a]quinoxalin-8-yl)((3S,4aS,9bS)-3-fluoro-7-(trifluoromethoxy)-3,4,4a,9b-tetrahydrobenzofuro[3,2-b]pyridin-1(2H)-yl)methanone]
CC50 [1]: < 100 nM

CC1(C)C[C@@H]2Oc3cc(C(F)(F)F)ccc3[C@@H]2N(C(=O)c2cc3c(cc2F)nc(N)c2cncn23)C1 (racemic) [Ff-257, Rac-(4-amino-7-fluoroimidazo[1,5-a]quinoxalin-8-yl)((4aR,9bR)-3,3-dimethyl-7-(trifluoromethyl)-3,4,4a,9b-tetrahydrobenzofuro[3,2-b]pyridin-1(2H)-yl)methanone]
CC50 [2]: < 100 nM

Nc1nc2cc(F)c(C(=O)N3CCC[C@@H]4Oc5cc(C(F)(F)F)c(F)cc5[C@@H]43)cc2n2cncc12 [Ff-105, (4-amino-7-fluoroimidazo[1,5-a]quinoxalin-8-yl)((4aS,9bS)-8-fluoro-7-(trifluoromethyl)-3,4,4a,9b-tetrahydrobenzofuro[3,2-b]pyridin-1(2H)-yl)methanone]
CC50 [2]: < 100 nM

C[C@H]1CN(C(=O)c2cc3c(cn2)nc(N)c2cncn23)[C@H]2c3ccc(OC(F)(F)F)c(F)c3C[C@H]2O1 (single isomer, unassigned) [Ff-194]
CC50 [2]: 100 to 1000 nM

CC1(C)CN(C(=O)c2cc3c(cc2F)nc(N)c2cncn23)[C@H]2c3ccc(C(F)(F)F)cc3C[C@H]2O1 [Ff-380, (4-amino-7-fluoroimidazo[1,5-a]quinoxalin-8-yl)((4aS,9aR)-2,2-dimethyl-7-(trifluoromethyl)-2,3,9,9a-tetrahydroindeno[2,1-b][1,4]oxazin-4(4aH)-yl)methanone]
CC50 [1]: < 100 nM

CN(C(=O)c1cc2c(cc1F)nc(N)c1cncn12)C1COc2ccc(C(F)(F)F)cc21 (centres unmarked) [Ff-458, 4-amino-7-fluoro-N-methyl-N-(5-(trifluoromethyl)-2,3-dihydrobenzofuran-3-yl)imidazo[1,5-a]quinoxaline-8-carboxamide]
CC50 [1]: < 100 nM

Nc1nc2cc(F)c(C(=O)N(Cc3ccc(C(F)(F)F)cn3)C3CC(F)(F)C3)cc2n2cncc12 [Ff-415, 4-amino-N-(3,3-difluorocyclobutyl)-7-fluoro-N-[[5-(trifluoromethyl)-2-pyridyl]methyl]imidazo[1,5-a]quinoxaline-8-carboxamide]
CC50 [1]: < 100 nM

Nc1nc2cc(F)c(C(=O)N(Cc3ccc(C(F)(F)F)cc3F)c3cnsc3)cc2n2cncc12 [Ff-227, 4-amino-7-fluoro-N-(2-fluoro-4-(trifluoromethyl)benzyl)-N-(isothiazol-4-yl)imidazo[1,5-a]quinoxaline-8-carboxamide]
CC50 [2]: < 100 nM

Reference: patent US12448388B2, “PRMT5 inhibitors and uses thereof” (Gilead Sciences, Inc., priority 2023, dated 2025)
